Source: ChEMBL document CHEMBL1165865, “Design, synthesis and determination of antifungal activity of 5(6)-substituted benzotriazoles” (2010)
Converted amounts (≈) assume the structure as drawn.

Tests used:
Type in all cases: functional
[1] = system: Candida albicans; test: Antifungal activity against Candida albicans ATCC 90028 after 24 hrs by macrodilution method; conditions: ATCC 90028, 24 h
[2] = system: Nakaseomyces glabratus; test: Antifungal activity against Candida glabrata ATCC 3916 after 24 hrs by macrodilution method; conditions: ATCC 3916, 24 h
[3] = system: Pichia kudriavzevii; test: Antifungal activity against Candida krusei ATCC 30068 after 24 hrs by macrodilution method; conditions: ATCC 30068, 24 h
[4] = system: Candida parapsilosis; test: Antifungal activity against Candida parapsilosis ATCC 22019 after 24 hrs by macrodilution method; conditions: Lodderomyces parapsilosis, ATCC 22019, 24 h
[5] = system: Saccharomyces cerevisiae; test: Antifungal activity against Saccharomyces cerevisiae DSMZ 1333 after 24 hrs by macrodilution method; conditions: DSMZ 1333, 24 h
[6] = system: Aspergillus niger; test: Antifungal activity against Aspergillus niger DSMZ 737 after 24 hrs by macrodilution method; conditions: DSMZ 737, 24 h

| SMILES | MIC [1] [µg/mL] | MIC [2] [µg/mL] | MIC [3] [µg/mL] | MIC [4] [µg/mL] | MIC [5] [µg/mL] | MIC [6] [µg/mL] |
| --- | --- | --- | --- | --- | --- | --- |
| Cc1ccc2c(c1)nnn2CC(O)(Cn1cncn1)c1ccc(F)cc1F (racemic) | 12.5 (≈ 33.8 µM) | 25 (≈ 67.5 µM) | 25 (≈ 67.5 µM) | 12.5 (≈ 33.8 µM) | 6.2 (≈ 16.7 µM) | 50 (≈ 135 µM) |
| O=[N+]([O-])c1ccc2nnn(CC(O)(Cn3cncn3)c3ccc(F)cc3F)c2c1 (racemic) | 50 (≈ 125 µM) | > 100 | > 100 | 100 (≈ 249 µM) | 100 (≈ 249 µM) | 100 (≈ 249 µM) |
| OC(Cn1cncn1)(Cn1nnc2cccnc21)c1ccc(F)cc1F (racemic) | 6.2 (≈ 17.4 µM) | 100 (≈ 280 µM) | 100 (≈ 280 µM) | 25 (≈ 70 µM) | 50 (≈ 140 µM) | 100 (≈ 280 µM) |
| OC(Cn1cncn1)(Cn1nnc2cc(F)ccc21)c1ccc(F)cc1F (racemic) | 25 (≈ 66.8 µM) | 25 (≈ 66.8 µM) | 50 (≈ 134 µM) | 3.1 (≈ 8.28 µM) | 12.5 (≈ 33.4 µM) | 100 (≈ 267 µM) |
| O=[N+]([O-])c1ccc2c(c1)nnn2CC(O)(Cn1cncn1)c1ccc(F)cc1F (racemic) | 1.6 (≈ 3.99 µM) | 100 (≈ 249 µM) | 50 (≈ 125 µM) | 6.2 (≈ 15.4 µM) | 12.5 (≈ 31.1 µM) | 100 (≈ 249 µM) |
| OC(Cn1cncn1)(Cn1nnc2ccc(F)cc21)c1ccc(F)cc1F (racemic) | 12.5 (≈ 33.4 µM) | > 100 | > 100 | 25 (≈ 66.8 µM) | 6.2 (≈ 16.6 µM) | > 100 |
| Cc1cc2nnn(CC(O)(Cn3cncn3)c3ccc(F)cc3F)c2cc1C (racemic) | 12.5 (≈ 32.5 µM) | 100 (≈ 260 µM) | > 100 | 50 (≈ 130 µM) | 50 (≈ 130 µM) | 100 (≈ 260 µM) |
| OC(Cn1cncn1)(Cn1nnc2cc(Cl)ccc21)c1ccc(F)cc1F (racemic) | 6.2 (≈ 15.9 µM) | 50 (≈ 128 µM) | > 100 | 12.5 (≈ 32 µM) | 6.2 (≈ 15.9 µM) | 25 (≈ 64 µM) |
| OC(Cn1cncn1)(Cn1nnc2ccc(Cl)cc21)c1ccc(F)cc1F (racemic) | 6.2 (≈ 15.9 µM) | > 100 | 100 (≈ 256 µM) | 100 (≈ 256 µM) | 100 (≈ 256 µM) | > 100 |
| Cc1ccc2nnn(CC(O)(Cn3cncn3)c3ccc(F)cc3F)c2c1 (racemic) | 25 (≈ 67.5 µM) | 50 (≈ 135 µM) | 25 (≈ 67.5 µM) | 6.2 (≈ 16.7 µM) | 6.2 (≈ 16.7 µM) | 12.5 (≈ 33.8 µM) |
| COc1ccc2c(c1)nnn2CC(O)(Cn1cncn1)c1ccc(F)cc1F (racemic) | 12.5 (≈ 32.4 µM) | 50 (≈ 129 µM) | 50 (≈ 129 µM) | 12.5 (≈ 32.4 µM) | 25 (≈ 64.7 µM) | 100 (≈ 259 µM) |
| Cc1cc2nn(CC(O)(Cn3cncn3)c3ccc(F)cc3F)nc2cc1C (racemic) | 1.6 (≈ 4.16 µM) | 25 (≈ 65 µM) | 100 (≈ 260 µM) | 3.1 (≈ 8.06 µM) | 6.2 (≈ 16.1 µM) | 25 (≈ 65 µM) |
| OC(Cn1cncn1)(Cn1nnc2ccccc21)c1ccc(F)cc1F (racemic) | 0.8 (≈ 2.25 µM) | 25 (≈ 70.2 µM) | 25 (≈ 70.2 µM) | 0.8 (≈ 2.25 µM) | 1.6 (≈ 4.49 µM) | > 100 |
| C[C@@H]1[C@H](O)[C@@H](C)/C=C/C=C/C=C/C=C/C=C/C=C/C=C/[C@H](O[C@@H]2O[C@H](C)[C@@H](O)[C@H](N)[C@@H]2O)C[C@@H]2O[C@](O)(C[C@@H](O)C[C@@H](O)[C@H](O)CC[C@@H](O)C[C@@H](O)CC(=O)O[C@H]1C)C[C@H](O)[C@H]2C(=O)O [AMPHOTERICIN B] | 0.4 (≈ 0.433 µM) | 0.4 (≈ 0.433 µM) | 0.4 (≈ 0.433 µM) | 0.4 (≈ 0.433 µM) | 0.4 (≈ 0.433 µM) | 0.8 (≈ 0.866 µM) |
| OC(Cn1cncn1)(Cn1cncn1)c1ccc(F)cc1F [FLUCONAZOLE] | 0.8 (≈ 2.61 µM) | 50 (≈ 163 µM) | 50 (≈ 163 µM) | 0.8 (≈ 2.61 µM) | 0.8 (≈ 2.61 µM) | > 100 |
